The results in this text go back to patent publication US9913858B2, “Prevention and treatment of toxicosis” (priority 2013, dated 2018).

This series can be described thus: Serum and cerebrospinal fluid bromide concentrations in the sheep trial. It is filed as in vivo. Particulars: intoxicated sheep. The procedure: Venous blood samples collected for biochemical analysis and haematocrit (PCV), and urine for USG, at three specific time points during the experiment for all animals: 1) on entry to the trial; 2) on date of entry to the end of trial protocol and, 3) on day of necropsy.
A full clinical examination was performed prior to euthanasia. At euthanasia, 100 I.U. heparin (Provet Riverina Pty Ltd) was injected into the jugular vein, followed shortly by Lethabarb (20 mL/40 kg LW). Immediately after euthanasia, the ventral articulation of C1 was exposed and cerebrospinal fluid (CSF) collected using a 23 g needle. The head was then removed and subjected to perfusion fixation. Briefly, the carotid arteries were exposed and a small catheter inserted and ligated to secure the perfusion lines. Two liters of 0.1% phosphate buffered saline (PBS) containing 3000 I.U of heparin/L was then slowly perfused via the ligated vessels at a pressure of 90 mm Hg using a Microgon peristaltic Pump (Microgon, Laguna Hills, Calif.). Once complete this was replaced with 4% paraformaldehyde (Sigma-Alrich) in 0.1% PBS and a further two liters allowed to perfuse slowly through the tissues of the head. Once complete, catheters were removed and the whole head placed at 4° C. overnight to complete fixation. Twenty-four hours post perfusion fixation the brain was removed from the skull and placed in 10% formal saline for storage until dissection for processing to wax sections.
Absorbance was measured with a spectrophotometer at 440 nm. […] The lower limit of quantification (LOQ) was 25 μg/mL.

With `[Br-].[K+]` [potassium bromide], the “mean serum bromide concentration” value (6 hours after oral 300 mg/kg potassium bromide, n=3) stood at 899.43 µg/mL. The “final mean serum bromide concentration” value (48 hours after oral 300 mg/kg potassium bromide, n=6) is 804.34 µg/mL.
